# According to ChEMBL document CHEMBL1201862, “PubChem BioAssay data set” (2004):
# The source made the active and inactive calls.
# Experiments:
# Hexokinase = Hexokinase (Trypanosoma brucei, UniProt Q38C41); assay: Confirmation assay for inhibitors of Trypanosoma brucei hexokinase 1-Analogue-first series. [Related pubchem assays (depositor defined):AID1430, AID1632, AID2516, AID2560, AID2579, AID2600, AID449725, AID492951]; format: functional
# [1] = biological target: Glucose-6-phosphate 1-dehydrogenase (Homo sapiens, UniProt P11413); assay: inhibition of Homo sapiens G6PD, dose series – biochemical, fluorescence, selectivity assay for P. falciparum G6PD inhibitor project, dose response (AID 504792); format: functional
# [2] = biological target: T1, Mitochondrial peptide methionine sulfoxide reductase (Bos taurus, UniProt P54149); assay: Absorbance-based biochemical high throughput dose response assay for activators of Methionine sulfoxide reductase A (MsrA).; format: functional
# T1 sequence (P54149 whole entry): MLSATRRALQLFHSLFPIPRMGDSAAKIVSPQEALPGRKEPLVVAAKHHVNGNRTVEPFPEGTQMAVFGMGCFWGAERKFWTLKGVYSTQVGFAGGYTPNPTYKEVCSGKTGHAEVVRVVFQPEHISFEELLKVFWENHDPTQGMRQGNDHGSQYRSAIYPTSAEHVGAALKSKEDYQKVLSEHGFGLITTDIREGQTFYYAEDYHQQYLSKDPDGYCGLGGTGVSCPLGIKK
# [3] = biological target: Intestinal-type alkaline phosphatase (Homo sapiens, UniProt P09923); assay: human intestinal alkaline phosphatase activators, dose response, biochemical, luminescence, uHTS hits (AID 463120); format: functional
# [4] = biological target: T2, G-protein coupled receptor 55 (Homo sapiens, UniProt Q9Y2T6); assay: inhibition of LPI-stimulated GPR55 beta-arrestin translocation – imaging, U2OS, beta-arrestin-GFP, LPI agonist, primary screen (AID 2013); format: functional;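 note: antagonist potency measured as reduced agonist-driven arrestin aggregation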
# Cannabinoid receptor 1 [5] = biological target: T3, Cannabinoid receptor 1 (Homo sapiens, UniProt P21554); assay: SAR analysis of antagonists of the Cannabinoid Receptor 1 using an Image-Based Assay - Set 2. [Related pubchem assays (depositor defined):AID2013, AID2026]; format: functional
# [6] = biological target: T4, G-protein coupled receptor 35 (Homo sapiens, UniProt Q9HC97); assay: SAR analysis of Agonists of the GPR35 Receptor using an Image-Based Assay - Set 2. [Related pubchem assays (depositor defined):AID2013, AID2026]; format: functional
# Cannabinoid receptor 2 [7] = biological target: T5, Cannabinoid receptor 2 (Homo sapiens, UniProt P34972); assay: SAR analysis of antagonists of the Cannabinoid Receptor 2 using an Image-Based Assay. [Related pubchem assays (depositor defined):AID2013, AID2026]; format: functional
# Cannabinoid receptor 1 [8] = biological target: T3, Cannabinoid receptor 1; assay: SAR analysis of agonists of the Cannabinoid Receptor 1 using an Image-Based Assay - Set 2. [Related pubchem assays (depositor defined):AID2013, AID2026]; format: functional
# [9] = biological target: T4, G-protein coupled receptor 35; assay: SAR analysis of Antagonists of the GPR35 Receptor using an Image-Based Assay - Set 3. [Related pubchem assays (depositor defined):AID2013, AID2026]; format: functional
# [10] = biological target: T2, G-protein coupled receptor 55; assay: blockade of LPI-induced GPR55 arrestin translocation – imaging, U2OS, beta-arrestin-GFP, LPI agonist, set 2, SAR follow-up (AID 2820); format: functional
# Cannabinoid receptor 2 [11] = biological target: T5, Cannabinoid receptor 2; assay: SAR analysis of agonists of the Cannabinoid Receptor 2 using an Image-Based Assay. [Related pubchem assays (depositor defined):AID2013, AID2026]; format: functional
# [12] = biological target: SWI/SNF-related matrix-associated actin-dependent regulator of chromatin subfamily A member 2 (Homo sapiens, UniProt P51531); assay: Luminescence-based cell-based high throughput dose response assay to identify activators of the function of SWI/SNF related, matrix associated, actin dependent regulator of chromatin, subfamily a, member 2 (SMARCA2, BRM).; format: functional
# [13] = Counterscreen for activators of the function of SWI/SNF related, matrix associated, actin dependent regulator of chromatin, subfamily a, member 2 (SMARCA2, BRM): Luminescence-based cell-based high throughput dose response assay to identify non-selective compounds using the VP16 reporter assay.; format: functional
# [14] = biological target: T6, Runt-related transcription factor 1/Core-binding factor subunit beta (Homo sapiens, UniProt Q01196+Q13951); assay: disruptors of Runt domain/CBFb-SMMHC interaction – biochemical, FRET, Cerulean-Runt, Venus-CBFb-SMMHC, uHTS, […] (AID 1434); format: protein assay
# [15] = biological target: T6, Runt-related transcription factor 1/Core-binding factor subunit beta; assay: Runt domain/CBFb-SMMHC interaction disruptors – biochemical, TR-FRET (AID 1438); format: protein assay
# Cannabinoid receptor 1 [16] = biological target: T3, Cannabinoid receptor 1; assay: SAR analysis of antagonists of the Cannabinoid Receptor 1 using an Image-Based Assay - Set 4. [Related pubchem assays (depositor defined):AID2013, AID2026]; format: functional
# [17] = biological target: T2, G-protein coupled receptor 55; assay: SAR Analysis of Selective Antagonists of GPR55 using an Image-Based Assay - Set 4. [Related pubchem assays (depositor defined):AID2013, AID2026]; format: functional
# Cannabinoid receptor 2 [18] = biological target: T5, Cannabinoid receptor 2; assay: SAR analysis of antagonists of the Cannabinoid Receptor 2 using an Image-Based Assay - Set 3. [Related pubchem assays (depositor defined):AID2013, AID2026]; format: functional
# Cannabinoid receptor 2 [19] = biological target: T5, Cannabinoid receptor 2; assay: SAR analysis of agonists of the Cannabinoid Receptor 2 using an Image-Based Assay - Set 3. [Related pubchem assays (depositor defined):AID2013, AID2026]; format: functional
# [20] = biological target: Alkaline phosphatase, placental type (Homo sapiens, UniProt P05187); assay: human placental alkaline phosphatase inhibition – biochemical, luminescence, confirmation (AID 1512); format: functional
# [21] = biological target: T7, Alkaline phosphatase, tissue-nonspecific isozyme (Homo sapiens, UniProt P05186); assay: potency against alkaline phosphatase TNAP – biochemical, luminescent, dose response, SAR follow-up (AID 1056)
# T7 sequence (P05186 whole entry): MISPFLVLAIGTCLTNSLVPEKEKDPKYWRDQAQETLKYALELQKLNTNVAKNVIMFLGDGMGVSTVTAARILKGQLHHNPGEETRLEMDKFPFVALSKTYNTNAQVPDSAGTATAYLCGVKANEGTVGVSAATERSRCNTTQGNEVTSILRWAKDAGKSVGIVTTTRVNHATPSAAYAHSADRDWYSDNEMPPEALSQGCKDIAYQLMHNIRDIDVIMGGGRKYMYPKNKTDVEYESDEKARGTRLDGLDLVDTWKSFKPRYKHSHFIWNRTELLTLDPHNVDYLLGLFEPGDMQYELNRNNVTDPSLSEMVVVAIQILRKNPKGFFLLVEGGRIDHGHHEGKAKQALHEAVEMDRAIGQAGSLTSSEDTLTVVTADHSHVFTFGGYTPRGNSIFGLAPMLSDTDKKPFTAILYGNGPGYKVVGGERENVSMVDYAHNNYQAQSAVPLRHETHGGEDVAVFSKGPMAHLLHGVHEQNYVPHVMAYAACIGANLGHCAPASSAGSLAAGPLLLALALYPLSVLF
# T3 sequence (P21554 whole entry): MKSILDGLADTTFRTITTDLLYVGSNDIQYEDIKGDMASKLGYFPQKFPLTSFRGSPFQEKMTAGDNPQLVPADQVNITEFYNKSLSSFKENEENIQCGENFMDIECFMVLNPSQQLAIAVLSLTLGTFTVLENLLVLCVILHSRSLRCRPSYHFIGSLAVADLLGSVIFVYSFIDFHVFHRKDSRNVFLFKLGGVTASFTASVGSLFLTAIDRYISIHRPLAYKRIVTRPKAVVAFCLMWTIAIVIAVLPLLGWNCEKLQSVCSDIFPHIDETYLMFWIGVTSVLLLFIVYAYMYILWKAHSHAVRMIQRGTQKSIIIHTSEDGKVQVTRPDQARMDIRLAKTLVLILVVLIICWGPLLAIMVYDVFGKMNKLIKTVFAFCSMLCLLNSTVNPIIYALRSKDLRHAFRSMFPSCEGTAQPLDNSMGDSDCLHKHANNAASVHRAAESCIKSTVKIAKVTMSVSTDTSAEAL
# T5 sequence (P34972 whole entry): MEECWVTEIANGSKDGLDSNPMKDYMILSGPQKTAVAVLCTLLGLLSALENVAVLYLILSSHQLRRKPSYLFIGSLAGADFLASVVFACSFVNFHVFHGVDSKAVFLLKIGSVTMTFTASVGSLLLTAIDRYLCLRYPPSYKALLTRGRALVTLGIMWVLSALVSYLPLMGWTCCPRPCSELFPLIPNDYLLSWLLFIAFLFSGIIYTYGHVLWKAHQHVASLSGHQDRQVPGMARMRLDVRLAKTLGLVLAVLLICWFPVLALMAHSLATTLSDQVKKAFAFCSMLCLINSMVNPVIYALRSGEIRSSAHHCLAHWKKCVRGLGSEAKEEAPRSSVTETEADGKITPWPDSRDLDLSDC
# T2 sequence (Q9Y2T6 whole entry): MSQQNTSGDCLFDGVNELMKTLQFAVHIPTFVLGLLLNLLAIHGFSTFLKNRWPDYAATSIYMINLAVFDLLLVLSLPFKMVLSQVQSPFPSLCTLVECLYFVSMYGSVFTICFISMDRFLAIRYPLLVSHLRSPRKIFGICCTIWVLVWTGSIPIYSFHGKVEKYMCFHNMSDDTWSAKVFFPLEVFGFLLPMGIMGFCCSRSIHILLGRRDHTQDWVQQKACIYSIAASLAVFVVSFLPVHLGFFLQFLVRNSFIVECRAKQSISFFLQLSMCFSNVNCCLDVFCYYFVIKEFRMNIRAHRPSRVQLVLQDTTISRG
# T4 sequence (Q9HC97 whole entry): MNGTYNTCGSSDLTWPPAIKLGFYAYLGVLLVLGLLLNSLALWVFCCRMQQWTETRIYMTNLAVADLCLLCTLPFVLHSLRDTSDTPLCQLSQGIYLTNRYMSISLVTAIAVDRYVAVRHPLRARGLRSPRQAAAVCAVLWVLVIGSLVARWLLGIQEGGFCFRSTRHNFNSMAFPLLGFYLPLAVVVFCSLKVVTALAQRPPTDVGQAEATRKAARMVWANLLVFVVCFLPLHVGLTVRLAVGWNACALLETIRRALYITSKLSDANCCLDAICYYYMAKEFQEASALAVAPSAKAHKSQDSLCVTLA
# T6 sequence (Q01196 whole entry, the tested form may be a part): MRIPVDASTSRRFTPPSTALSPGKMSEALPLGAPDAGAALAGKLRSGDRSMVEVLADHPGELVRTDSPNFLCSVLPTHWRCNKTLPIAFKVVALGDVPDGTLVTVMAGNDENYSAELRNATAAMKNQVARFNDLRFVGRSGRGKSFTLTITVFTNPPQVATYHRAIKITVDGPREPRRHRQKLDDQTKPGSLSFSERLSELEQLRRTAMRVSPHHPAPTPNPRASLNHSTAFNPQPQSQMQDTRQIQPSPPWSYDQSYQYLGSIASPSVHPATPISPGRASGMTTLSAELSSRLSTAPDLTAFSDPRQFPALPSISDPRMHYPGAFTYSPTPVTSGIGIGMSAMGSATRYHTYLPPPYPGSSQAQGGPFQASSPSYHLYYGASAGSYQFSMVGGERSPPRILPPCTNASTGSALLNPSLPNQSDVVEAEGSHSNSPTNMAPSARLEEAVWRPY
# T6 sequence (Q13951 whole entry, the tested form may be a part): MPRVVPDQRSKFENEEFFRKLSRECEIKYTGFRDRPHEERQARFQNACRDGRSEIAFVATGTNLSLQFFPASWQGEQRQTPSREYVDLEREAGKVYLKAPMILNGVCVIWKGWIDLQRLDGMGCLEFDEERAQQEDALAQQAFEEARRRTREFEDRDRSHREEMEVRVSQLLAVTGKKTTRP
# Chain of Glucose-6-phosphate 1-dehydrogenase (P11413 whole entry): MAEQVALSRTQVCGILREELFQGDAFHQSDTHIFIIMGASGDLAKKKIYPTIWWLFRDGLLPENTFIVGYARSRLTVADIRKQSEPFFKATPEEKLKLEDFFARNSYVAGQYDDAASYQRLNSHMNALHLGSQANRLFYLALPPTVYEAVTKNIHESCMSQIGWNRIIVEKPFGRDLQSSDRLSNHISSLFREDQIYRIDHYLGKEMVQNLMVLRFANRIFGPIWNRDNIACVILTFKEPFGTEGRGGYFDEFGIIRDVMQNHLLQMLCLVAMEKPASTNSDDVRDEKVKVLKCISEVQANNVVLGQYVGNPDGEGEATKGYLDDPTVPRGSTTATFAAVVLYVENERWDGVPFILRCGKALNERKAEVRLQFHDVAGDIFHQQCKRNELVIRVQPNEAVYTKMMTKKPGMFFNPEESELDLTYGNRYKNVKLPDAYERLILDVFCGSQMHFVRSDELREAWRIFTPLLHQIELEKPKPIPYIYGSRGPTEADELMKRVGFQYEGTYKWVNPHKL
# Chain of Intestinal-type alkaline phosphatase (P09923 whole entry): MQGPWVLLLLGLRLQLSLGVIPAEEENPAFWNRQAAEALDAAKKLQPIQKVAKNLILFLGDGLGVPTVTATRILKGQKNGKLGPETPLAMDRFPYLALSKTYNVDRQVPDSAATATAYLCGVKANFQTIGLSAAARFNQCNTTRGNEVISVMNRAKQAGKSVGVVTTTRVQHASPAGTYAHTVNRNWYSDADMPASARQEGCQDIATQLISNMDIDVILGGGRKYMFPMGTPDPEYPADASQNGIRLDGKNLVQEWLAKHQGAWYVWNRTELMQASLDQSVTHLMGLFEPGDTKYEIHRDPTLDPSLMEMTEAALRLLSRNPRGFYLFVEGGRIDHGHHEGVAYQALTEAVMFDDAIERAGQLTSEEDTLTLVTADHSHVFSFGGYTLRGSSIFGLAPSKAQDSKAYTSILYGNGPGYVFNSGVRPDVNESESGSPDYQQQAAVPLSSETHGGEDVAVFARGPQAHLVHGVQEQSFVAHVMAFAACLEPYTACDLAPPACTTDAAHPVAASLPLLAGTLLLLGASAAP
# Chain of SWI/SNF-related matrix-associated actin-dependent regulator of chromatin subfamily A member 2 (P51531 whole entry): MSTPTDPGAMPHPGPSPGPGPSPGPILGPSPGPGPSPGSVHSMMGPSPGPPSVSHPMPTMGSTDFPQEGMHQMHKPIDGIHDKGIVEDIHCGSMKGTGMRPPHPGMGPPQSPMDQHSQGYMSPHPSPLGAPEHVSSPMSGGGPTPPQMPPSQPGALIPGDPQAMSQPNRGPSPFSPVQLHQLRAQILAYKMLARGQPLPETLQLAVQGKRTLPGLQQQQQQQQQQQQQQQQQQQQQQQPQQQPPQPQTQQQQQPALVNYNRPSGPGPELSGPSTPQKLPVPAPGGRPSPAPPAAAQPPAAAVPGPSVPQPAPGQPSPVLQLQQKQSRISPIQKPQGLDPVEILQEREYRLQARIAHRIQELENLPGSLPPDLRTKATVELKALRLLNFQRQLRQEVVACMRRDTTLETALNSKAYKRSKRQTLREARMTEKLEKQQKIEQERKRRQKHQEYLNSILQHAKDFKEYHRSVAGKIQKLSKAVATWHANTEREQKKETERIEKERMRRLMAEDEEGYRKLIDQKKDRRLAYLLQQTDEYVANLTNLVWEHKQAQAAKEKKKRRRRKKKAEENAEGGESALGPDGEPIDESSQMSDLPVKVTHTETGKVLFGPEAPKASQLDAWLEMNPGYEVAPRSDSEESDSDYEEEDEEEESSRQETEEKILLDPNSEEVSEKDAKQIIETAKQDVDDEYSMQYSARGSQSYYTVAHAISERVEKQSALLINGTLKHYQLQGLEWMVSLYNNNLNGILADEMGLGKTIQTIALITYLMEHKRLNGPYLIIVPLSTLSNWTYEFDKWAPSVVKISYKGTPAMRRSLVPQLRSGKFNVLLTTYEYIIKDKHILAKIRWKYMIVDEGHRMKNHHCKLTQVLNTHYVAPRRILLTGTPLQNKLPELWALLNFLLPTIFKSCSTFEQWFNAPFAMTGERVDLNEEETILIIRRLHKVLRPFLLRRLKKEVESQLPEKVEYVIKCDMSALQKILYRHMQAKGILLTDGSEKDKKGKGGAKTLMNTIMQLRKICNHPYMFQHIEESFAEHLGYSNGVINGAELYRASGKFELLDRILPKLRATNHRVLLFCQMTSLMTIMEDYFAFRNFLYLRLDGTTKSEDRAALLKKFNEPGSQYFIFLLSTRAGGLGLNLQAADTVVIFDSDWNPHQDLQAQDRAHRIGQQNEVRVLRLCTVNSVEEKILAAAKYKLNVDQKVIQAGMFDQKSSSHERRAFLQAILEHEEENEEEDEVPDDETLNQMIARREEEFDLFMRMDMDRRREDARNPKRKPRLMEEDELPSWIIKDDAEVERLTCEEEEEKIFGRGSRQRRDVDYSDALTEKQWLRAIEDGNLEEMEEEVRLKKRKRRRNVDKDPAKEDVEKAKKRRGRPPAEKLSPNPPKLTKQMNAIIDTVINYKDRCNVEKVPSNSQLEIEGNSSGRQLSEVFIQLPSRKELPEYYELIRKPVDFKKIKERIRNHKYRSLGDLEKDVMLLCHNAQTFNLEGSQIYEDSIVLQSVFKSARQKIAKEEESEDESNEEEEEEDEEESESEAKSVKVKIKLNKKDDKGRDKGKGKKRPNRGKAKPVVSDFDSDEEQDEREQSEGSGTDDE
Structure (SMILES),IC50 [4],IC50 (Cannabinoid receptor 1 [5]),EC50 [6],IC50 (Cannabinoid receptor 2 [7]),EC50 (Cannabinoid receptor 1 [8]),IC50 [9],IC50 [10],EC50 (Cannabinoid receptor 2 [11]),further results
N#Cc1ccc2sn(-c3ccccc3)c(=O)c2c1,–,–,–,–,–,–,–,–,IC50 (Hexokinase): 2.97 µM (active); IC50 [1]: 14.1 µM (active); EC50 [2]: > 104 µM (inactive)
Cc1ccc(O)c(-c2cc(C(=O)NCc3ccc4c(c3)OCO4)[nH]n2)c1,–,–,–,–,–,–,–,–,EC50 [3]: 13 µM (active)
Cc1ccc2nc3c(cc(C(=O)NCc4ccco4)c(=N)n3C3CCCC3)c(=O)n2c1,3.98 µM (active),> 32 µM (inactive),> 32 µM (inactive),> 32 µM (inactive),> 32 µM (inactive),> 32 µM (inactive),0.354 µM (active),> 32 µM (inactive),EC50 [12]: > 91.2 µM (inactive); EC50 [13]: > 91.2 µM (inactive)
COc1ccc2o/c(=N\O)c(C(=O)Nc3ccccc3OC)cc2c1,–,–,–,–,–,–,–,–,IC50 [14]: 59 µM (inactive); IC50 [15]: 60.5 µM (inactive)
CCOC(=O)c1cc2c(=O)n3ccccc3nc2n(Cc2ccccc2)c1=N,< 0.5 µM (active),> 32 µM (inactive),> 32 µM (inactive),> 32 µM (inactive),> 32 µM (inactive),> 32 µM (inactive),0.878 µM (active),> 32 µM (inactive),IC50 (Cannabinoid receptor 1 [16]): 0.069 µM (active); IC50 [17]: > 32 µM (inactive); IC50 (Cannabinoid receptor 2 [18]): > 32 µM (inactive); EC50 (Cannabinoid receptor 2 [19]): > 32 µM (inactive)
Cc1ccc(-c2nnc(SCC(=O)c3ccc(O)c(O)c3)n2-c2ccc(Cl)cc2)cc1,–,–,–,–,–,–,–,–,IC50 [20]: 15.3 µM (active); IC50 [21]: > 100 µM (inactive)
